Experimental data from patent US5491155A, “Substituted thiadiazoles, compositions containing them and their use as antimicrobial and marine antifouling agents” (The Dow Chemical Company, priority 1994, dated 1996).
Values after ≈ are worked out from the molar mass of the structure shown. Read-outs that look alike come from different tables or passages of the source.

What was measured:
Bacillus subtilis = assay: MIC in nutrient agar, Bacillus subtilis; type: cell-based, Bacillus subtilis (ATCC 8473); conditions: Bs, 48 hours, read-out: Minimum Inhibitory Concentration (MIC)
Experimental: (§1) The minimum inhibitory concentration (MIC) for the compounds listed in Table I is determined for bacteria, using nutrient agar, and 7 yeast and fungi, using malt yeast agar. A one percent solution of the test compound is prepared in a mixture of acetone and water.
(§2) Nutrient agar is prepared at pH 6.8, representing a neutral medium, and at pH 8.2, representing an alkaline medium. The nutrient agars are prepared by adding 23 g of nutrient agar to one-liter of deionized water. In addition, the alkaline medium is prepared by adjusting a 0.04M solution of N-(tris-(hydroxymethyl)methyl)glycine buffered deionized water with concentrated sodium hydroxide to a pH of 8.5.
(§3) The test tubes containing the agar are cooled in a water bath until the temperature of the agar is 48° C. Then, an appropriate amount of the one percent solution of the test compound is added (except in the controls where no compound is added) to the respective test tubes so that the final concentrations are 500, 250, 100, 50, 25, 10, 2.5, 1.0 and zero parts per million of the test compound in the agar, thus having a known concentration of test compound dispersed therein. The contents of the test tubes are then transferred to respective petri plates. After drying for 24 hours, the petri plates containing nutrient agar are inoculated with bacteria and those containing malt yeast agar are inoculated with yeast and fungi.
(§4) The inoculation with bacteria is accomplished by using the following procedure. Twenty-four hour-cultures of each of the bacteria are prepared by incubating the respective bacteria in tubes containing nutrient broth for 24 hours at 30° C. in a shaker. Dilutions of each of the 24 hour-cultures are made so that nine separate suspensions (one for each of the nine test bacteria) are made, each containing 10^8 colony forming units (CFU) per mL of suspension of a particular bacteria. Aliquots of 0.3 mL of each of the bacterial suspensions are used to fill the individual wells of Steer's Replicator. For each microbial suspension, 0.3 mL was used to fill three wells (i.e., three wells of 0.3 mL each) so that for the nine different bacteria, 27 wells are filled. The Steer's Replicator is then used to inoculate both the neutral and alkaline pH nutrient agar petri plates.
(§5) The inoculated petri plates are incubated at 30° C. for 48 hours and then read to determine if the test compound which is incorporated into the agar prevented growth of the respective bacteria.
(§6) Table II lists the bacteria, yeast and fungi used in the MIC test described above along with their respective American Type Culture Collection (ATCC) identification numbers.
(§7) In Tables III and IV, the MIC values of the compounds described in Table I as compared to the MIC of a standard commercial preservative (with 1-(3-chloroalkyl)-3,5,7-triaza-1-azoniaadamantane chloride as the active agent and referred to in Tables III and IV as "STANDARD I") are set forth for the bacteria organisms and yeast/fungi organisms which are listed in Table II.

Enterobacter aerogenes = assay: MIC in nutrient agar, Enterobacter aerogenes; type: cell-based, Enterobacter aerogenes (ATCC 13048); conditions: Klebsiella aerogenes, Ea, 30° C., 48 hours, read-out: Minimum Inhibitory Concentration (MIC)
Experimental: as §1, §2, §3, §4, §5, §6, §7

[1] = system: Pseudomonas aeruginosa (PRD-10); assay: MIC in nutrient agar, Pseudomonas aeruginosa (PRD-10); type: cell-based, Pseudomonas aeruginosa (ATCC 15442); conditions: PRD, 48 hours, read-out: Minimum Inhibitory Concentration (MIC)
Experimental: as §1, §2, §3, §4, §5, §6, §7

Pseudomonas aeruginosa = assay: MIC in nutrient agar, Pseudomonas aeruginosa (Pa); type: cell-based, Pseudomonas aeruginosa (ATCC 10145); conditions: Pa, 48 hours, read-out: Minimum Inhibitory Concentration (MIC)
Experimental: as §1, §2, §3, §4, §5, §6, §7

Salmonella choleraesuis = assay: MIC in nutrient agar, Salmonella choleraesuis; type: cell-based, Salmonella choleraesuis (ATCC 10708); conditions: Salmonella enterica, Sc, 48 hours, read-out: Minimum Inhibitory Concentration (MIC)
Experimental: as §1, §2, §3, §4, §5, §6, §7

Aspergillus niger = assay: MIC in malt yeast agar, Aspergillus niger; type: cell-based, Aspergillus niger (ATCC 16404); conditions: An; malt yeast agar; 30° C.; 72 hours for fungi; read-out: Minimum Inhibitory Concentration (MIC)
Experimental: as §1
(§8) Malt yeast agar is prepared by adding 3 g yeast extract and 45 g malt agar per liter of deionized water. The specific agar is dispensed in 30 mL aliquots into 25×200 mm test tubes, capped and autoclaved for 15 minutes at 115° C.
as §3
(§9) The inoculation with the yeast and fungi is accomplished as follows. Cultures of yeast and fungi are incubated for seven days on malt yeast agar at 30° C. These cultures are used to prepare suspensions by the following procedure. A suspension of each organism is prepared by adding 10 mL of sterile saline and 10 microliters of octylphenoxy polyethoxy ethanol to the agar slant of yeast or fungi. The sterile saline/octylphenoxy polyethoxy ethanol solution is then agitated with a sterile swab to suspend the microorganism grown on the slant. Each resulting suspension is diluted into sterile saline (1 part suspension: 9 parts sterile saline). Aliquots of these dilutions are placed in individual wells of Steer's Replicator and petri plates inoculated as previously described. The petri plates are incubated at 30° C. and read after 48 hours for yeast and 72 hours for fungi.
as §6, §7

Candida albicans = assay: MIC in malt yeast agar, Candida albicans; type: cell-based, Candida albicans (ATCC 10231); conditions: Ca; malt yeast agar; 30° C.; 48 hours for yeast; read-out: Minimum Inhibitory Concentration (MIC)
Experimental: as §1, §8, §3, §9, §6, §7

Fusarium oxysporum = assay: MIC in malt yeast agar, Fusarium oxysporum; type: cell-based, Fusarium oxysporum (ATCC 48112); conditions: Fo; malt yeast agar; 30° C.; 72 hours for fungi; read-out: Minimum Inhibitory Concentration (MIC)
Experimental: as §1, §8, §3, §9, §6, §7

Row | MIC (Bacillus subtilis; pH 6.8, 30° C.) | MIC (Bacillus subtilis; pH 8.2, 30° C.) | MIC (Enterobacter aerogenes; pH 6.8) | MIC (Enterobacter aerogenes; pH 8.2) | MIC ([1]; pH 6.8, 30° C.) | MIC ([1]; pH 8.2, 30° C.) | MIC (Pseudomonas aeruginosa; pH 6.8, 30° C.) | MIC (Pseudomonas aeruginosa; pH 8.2, 30° C.) | MIC (Aspergillus niger) | MIC (Candida albicans) | MIC (Fusarium oxysporum) | Compound | MIC (Salmonella choleraesuis; pH 6.8, 30° C.) | MIC (Salmonella choleraesuis; pH 8.2, 30° C.)
1 | 25 µg/mL (≈ 125 µM) | 100 µg/mL (≈ 499 µM) | 25 µg/mL (≈ 125 µM) | 100 µg/mL (≈ 499 µM) | 25 µg/mL (≈ 125 µM) | 250 µg/mL (≈ 1250 µM) | 50 µg/mL (≈ 250 µM) | 250 µg/mL (≈ 1250 µM) | < 1 µg/mL | < 1 µg/mL | 2.5 µg/mL (≈ 12.5 µM) | N#CSc1nsnc1SC#N [Example 2, Bis(thiocyanato)-1,2,5-thiadiazole] | 25 µg/mL (≈ 125 µM) | 100 µg/mL (≈ 499 µM)
2 | < 10 µg/mL | < 10 µg/mL | 25 µg/mL (≈ 85.5 µM) | < 10 µg/mL | 25 µg/mL (≈ 85.5 µM) | 25 µg/mL (≈ 85.5 µM) | < 10 µg/mL | < 10 µg/mL | < 2.5 µg/mL | < 2.5 µg/mL | < 2.5 µg/mL | N#CSCSc1nsnc1SCSC#N [Example 4, Bis(thiomethylthiocyanato)-1,2,5-thiadiazole] | 25 µg/mL (≈ 85.5 µM) | 25 µg/mL (≈ 85.5 µM)
